Numbers after ± are expanded uncertainties.
Experiment: refractive index (Na D-line) (dimensionless); xn = mol fraction of the nth substance listed
Details: 101.32 kPa, Liquid, Standard Abbe refractometry

## COCCOCCOC [2,5,8-trioxanonane] + CCO
288.15 K, x1 = 0.0045
  refractive index: 1.3636 ± 0.0005
288.15 K, x1 = 0.0085
  refractive index: 1.3641 ± 0.0005
288.15 K, x1 = 0.0125
  refractive index: 1.3645 ± 0.0005
288.15 K, x1 = 0.0165
  refractive index: 1.365 ± 0.0005
288.15 K, x1 = 0.0205
  refractive index: 1.3655 ± 0.0005
288.15 K, x1 = 0.0305
  refractive index: 1.3666 ± 0.0005
288.15 K, x1 = 0.05
  refractive index: 1.3687 ± 0.0005
288.15 K, x1 = 0.1
  refractive index: 1.3737 ± 0.0005
288.15 K, x1 = 0.15
  refractive index: 1.378 ± 0.0005
288.15 K, x1 = 0.2
  refractive index: 1.3817 ± 0.0005
288.15 K, x1 = 0.25
  refractive index: 1.3851 ± 0.0005
288.15 K, x1 = 0.3
  refractive index: 1.3881 ± 0.0005
288.15 K, x1 = 0.35
  refractive index: 1.3907 ± 0.0005
288.15 K, x1 = 0.4
  refractive index: 1.3931 ± 0.0005
288.15 K, x1 = 0.45
  refractive index: 1.3953 ± 0.0005
288.15 K, x1 = 0.4999
  refractive index: 1.3973 ± 0.0005
288.15 K, x1 = 0.55
  refractive index: 1.399 ± 0.0005
288.15 K, x1 = 0.5999
  refractive index: 1.4007 ± 0.0005
288.15 K, x1 = 0.65
  refractive index: 1.4022 ± 0.0005
288.15 K, x1 = 0.6999
  refractive index: 1.4036 ± 0.0005
288.15 K, x1 = 0.7499
  refractive index: 1.4049 ± 0.0005
288.15 K, x1 = 0.7999
  refractive index: 1.406 ± 0.0005
288.15 K, x1 = 0.8499
  refractive index: 1.4072 ± 0.0005
288.15 K, x1 = 0.8998
  refractive index: 1.4082 ± 0.0005
288.15 K, x1 = 0.9498
  refractive index: 1.4092 ± 0.0005
288.15 K, x1 = 1
  refractive index: 1.4101 ± 0.0005
298.15 K, x1 = 0.0045
  refractive index: 1.3596 ± 0.0005
298.15 K, x1 = 0.0085
  refractive index: 1.3601 ± 0.0005
298.15 K, x1 = 0.0125
  refractive index: 1.3605 ± 0.0005
298.15 K, x1 = 0.0165
  refractive index: 1.361 ± 0.0005
298.15 K, x1 = 0.0205
  refractive index: 1.3615 ± 0.0005
298.15 K, x1 = 0.0305
  refractive index: 1.3626 ± 0.0005
298.15 K, x1 = 0.05
  refractive index: 1.3647 ± 0.0005
298.15 K, x1 = 0.1
  refractive index: 1.3696 ± 0.0005
298.15 K, x1 = 0.15
  refractive index: 1.3739 ± 0.0005
298.15 K, x1 = 0.2
  refractive index: 1.3776 ± 0.0005
298.15 K, x1 = 0.25
  refractive index: 1.381 ± 0.0005
298.15 K, x1 = 0.3
  refractive index: 1.3839 ± 0.0005
298.15 K, x1 = 0.35
  refractive index: 1.3866 ± 0.0005
298.15 K, x1 = 0.4
  refractive index: 1.3889 ± 0.0005
298.15 K, x1 = 0.45
  refractive index: 1.3911 ± 0.0005
298.15 K, x1 = 0.4999
  refractive index: 1.3931 ± 0.0005
298.15 K, x1 = 0.55
  refractive index: 1.3948 ± 0.0005
298.15 K, x1 = 0.5999
  refractive index: 1.3965 ± 0.0005
298.15 K, x1 = 0.65
  refractive index: 1.398 ± 0.0005
298.15 K, x1 = 0.6999
  refractive index: 1.3993 ± 0.0005
298.15 K, x1 = 0.7499
  refractive index: 1.4006 ± 0.0005
298.15 K, x1 = 0.7999
  refractive index: 1.4018 ± 0.0005
298.15 K, x1 = 0.8499
  refractive index: 1.4029 ± 0.0005
298.15 K, x1 = 0.8998
  refractive index: 1.4039 ± 0.0005
298.15 K, x1 = 0.9498
  refractive index: 1.4049 ± 0.0005
298.15 K, x1 = 1
  refractive index: 1.4058 ± 0.0005
308.15 K, x1 = 0.0045
  refractive index: 1.3555 ± 0.0005
308.15 K, x1 = 0.0085
  refractive index: 1.356 ± 0.0005
308.15 K, x1 = 0.0125
  refractive index: 1.3565 ± 0.0005
308.15 K, x1 = 0.0165
  refractive index: 1.3569 ± 0.0005
308.15 K, x1 = 0.0205
  refractive index: 1.3574 ± 0.0005
308.15 K, x1 = 0.0305
  refractive index: 1.3585 ± 0.0005
308.15 K, x1 = 0.05
  refractive index: 1.3606 ± 0.0005
308.15 K, x1 = 0.1
  refractive index: 1.3654 ± 0.0005
308.15 K, x1 = 0.15
  refractive index: 1.3697 ± 0.0005
308.15 K, x1 = 0.2
  refractive index: 1.3734 ± 0.0005
308.15 K, x1 = 0.25
  refractive index: 1.3767 ± 0.0005
308.15 K, x1 = 0.3
  refractive index: 1.3797 ± 0.0005
308.15 K, x1 = 0.35
  refractive index: 1.3823 ± 0.0005
308.15 K, x1 = 0.4
  refractive index: 1.3846 ± 0.0005
308.15 K, x1 = 0.45
  refractive index: 1.3867 ± 0.0005
308.15 K, x1 = 0.4999
  refractive index: 1.3887 ± 0.0005
308.15 K, x1 = 0.55
  refractive index: 1.3904 ± 0.0005
308.15 K, x1 = 0.5999
  refractive index: 1.392 ± 0.0005
308.15 K, x1 = 0.65
  refractive index: 1.3935 ± 0.0005
308.15 K, x1 = 0.6999
  refractive index: 1.3949 ± 0.0005
308.15 K, x1 = 0.7499
  refractive index: 1.3961 ± 0.0005
308.15 K, x1 = 0.7999
  refractive index: 1.3973 ± 0.0005
308.15 K, x1 = 0.8499
  refractive index: 1.3984 ± 0.0005
308.15 K, x1 = 0.8998
  refractive index: 1.3994 ± 0.0005
308.15 K, x1 = 0.9498
  refractive index: 1.4003 ± 0.0005
308.15 K, x1 = 1
  refractive index: 1.4012 ± 0.0005
318.15 K, x1 = 0.0045
  refractive index: 1.3514 ± 0.0005
318.15 K, x1 = 0.0085
  refractive index: 1.3518 ± 0.0005
318.15 K, x1 = 0.0125
  refractive index: 1.3523 ± 0.0005
318.15 K, x1 = 0.0165
  refractive index: 1.3528 ± 0.0005
318.15 K, x1 = 0.0205
  refractive index: 1.3532 ± 0.0005
318.15 K, x1 = 0.0305
  refractive index: 1.3543 ± 0.0005
318.15 K, x1 = 0.05
  refractive index: 1.3564 ± 0.0005
318.15 K, x1 = 0.1
  refractive index: 1.3612 ± 0.0005
318.15 K, x1 = 0.15
  refractive index: 1.3655 ± 0.0005
318.15 K, x1 = 0.2
  refractive index: 1.3692 ± 0.0005
318.15 K, x1 = 0.25
  refractive index: 1.3725 ± 0.0005
318.15 K, x1 = 0.3
  refractive index: 1.3754 ± 0.0005
318.15 K, x1 = 0.35
  refractive index: 1.378 ± 0.0005
318.15 K, x1 = 0.4
  refractive index: 1.3803 ± 0.0005
318.15 K, x1 = 0.45
  refractive index: 1.3824 ± 0.0005
318.15 K, x1 = 0.4999
  refractive index: 1.3843 ± 0.0005
318.15 K, x1 = 0.55
  refractive index: 1.3861 ± 0.0005
318.15 K, x1 = 0.5999
  refractive index: 1.3877 ± 0.0005
318.15 K, x1 = 0.65
  refractive index: 1.3892 ± 0.0005
318.15 K, x1 = 0.6999
  refractive index: 1.3905 ± 0.0005
318.15 K, x1 = 0.7499
  refractive index: 1.3917 ± 0.0005
318.15 K, x1 = 0.7999
  refractive index: 1.3929 ± 0.0005
318.15 K, x1 = 0.8499
  refractive index: 1.394 ± 0.0005
318.15 K, x1 = 0.8998
  refractive index: 1.395 ± 0.0005
318.15 K, x1 = 0.9498
  refractive index: 1.3959 ± 0.0005
318.15 K, x1 = 1
  refractive index: 1.3968 ± 0.0005

Reference: the NIST ThermoML archive (doi:10.1021/je0302304)
